Columns and labels:
[1] = target: T1, 5-hydroxytryptamine receptor 1A (Homo sapiens, UniProt P08908); experiment: Displacement of [3H]-[…] from human 5-HT1AR expressed in human HEK293 cells; assay type: cell-based
T1 sequence (P08908 whole entry): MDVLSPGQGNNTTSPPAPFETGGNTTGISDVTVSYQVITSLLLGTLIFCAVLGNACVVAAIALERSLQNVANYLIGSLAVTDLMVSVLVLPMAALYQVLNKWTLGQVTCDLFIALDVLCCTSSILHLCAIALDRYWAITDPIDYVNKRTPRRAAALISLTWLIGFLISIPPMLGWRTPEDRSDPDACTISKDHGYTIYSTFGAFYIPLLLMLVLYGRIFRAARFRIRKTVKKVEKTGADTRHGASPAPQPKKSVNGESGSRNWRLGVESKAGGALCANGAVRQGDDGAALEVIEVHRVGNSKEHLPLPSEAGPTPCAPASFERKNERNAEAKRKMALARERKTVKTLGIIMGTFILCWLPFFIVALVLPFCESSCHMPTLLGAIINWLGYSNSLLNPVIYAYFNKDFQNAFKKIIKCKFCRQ

D(4) dopamine receptor = target: T2, D(4) dopamine receptor (Homo sapiens, UniProt P21917); experiment: Binding affinity to human D4R
T2 sequence (P21917 whole entry): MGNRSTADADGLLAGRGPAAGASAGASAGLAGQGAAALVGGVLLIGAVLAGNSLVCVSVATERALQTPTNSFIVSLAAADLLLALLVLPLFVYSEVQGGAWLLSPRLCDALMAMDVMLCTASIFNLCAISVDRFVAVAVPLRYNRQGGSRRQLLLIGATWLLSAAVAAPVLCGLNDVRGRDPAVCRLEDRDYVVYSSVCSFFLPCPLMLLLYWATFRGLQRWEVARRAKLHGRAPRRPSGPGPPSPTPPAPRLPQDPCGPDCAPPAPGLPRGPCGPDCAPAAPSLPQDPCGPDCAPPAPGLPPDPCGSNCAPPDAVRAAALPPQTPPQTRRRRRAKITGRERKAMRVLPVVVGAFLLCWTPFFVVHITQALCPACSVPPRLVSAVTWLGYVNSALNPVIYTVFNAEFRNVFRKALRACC

[2] = target: 5-hydroxytryptamine receptor 2A (Homo sapiens, UniProt P28223); experiment: Displacement of [3H]-ketanserin from human 5-HT2AR expressed in CHO cells; assay type: cell-based
5-hydroxytryptamine receptor 2A, sequence (P28223 whole entry): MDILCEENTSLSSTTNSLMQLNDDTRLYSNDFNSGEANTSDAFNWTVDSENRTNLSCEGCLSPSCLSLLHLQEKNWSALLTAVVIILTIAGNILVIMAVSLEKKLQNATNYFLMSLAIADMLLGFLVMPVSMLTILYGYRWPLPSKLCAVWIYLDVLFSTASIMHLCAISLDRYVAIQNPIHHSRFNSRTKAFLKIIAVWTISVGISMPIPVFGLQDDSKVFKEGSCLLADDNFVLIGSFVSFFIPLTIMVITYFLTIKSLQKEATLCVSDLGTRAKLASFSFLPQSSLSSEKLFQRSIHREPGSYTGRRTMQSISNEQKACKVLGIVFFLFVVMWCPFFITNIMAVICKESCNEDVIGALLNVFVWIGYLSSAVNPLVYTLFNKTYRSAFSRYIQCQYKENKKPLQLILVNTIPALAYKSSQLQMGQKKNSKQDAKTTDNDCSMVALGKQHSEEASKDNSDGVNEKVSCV

[3] = target: 5-hydroxytryptamine receptor 7 (Homo sapiens, UniProt P34969); experiment: Displacement of [3H]-5CT from human 5-HT7R expressed in human HEK293 cells; assay type: cell-based
5-hydroxytryptamine receptor 7, sequence (P34969 whole entry): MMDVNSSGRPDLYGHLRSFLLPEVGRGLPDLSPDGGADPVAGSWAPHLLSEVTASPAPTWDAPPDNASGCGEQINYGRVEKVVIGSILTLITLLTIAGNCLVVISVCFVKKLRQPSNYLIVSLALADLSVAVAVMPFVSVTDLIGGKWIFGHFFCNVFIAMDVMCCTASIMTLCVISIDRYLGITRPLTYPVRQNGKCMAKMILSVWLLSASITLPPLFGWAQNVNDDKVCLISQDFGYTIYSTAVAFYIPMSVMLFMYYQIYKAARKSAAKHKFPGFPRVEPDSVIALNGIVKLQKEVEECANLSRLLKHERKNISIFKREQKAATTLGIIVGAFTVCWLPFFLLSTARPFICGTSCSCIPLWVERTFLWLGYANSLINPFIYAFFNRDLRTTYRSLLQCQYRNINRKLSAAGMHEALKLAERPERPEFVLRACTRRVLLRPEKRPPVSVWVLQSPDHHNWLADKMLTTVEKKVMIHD

[4] = target: 5-hydroxytryptamine receptor 6 (Homo sapiens, UniProt P50406); experiment: Displacement of [3H]-LSD from human 5-HT6R expressed in human HEK293 cells; assay type: cell-based
5-hydroxytryptamine receptor 6, sequence (P50406 whole entry): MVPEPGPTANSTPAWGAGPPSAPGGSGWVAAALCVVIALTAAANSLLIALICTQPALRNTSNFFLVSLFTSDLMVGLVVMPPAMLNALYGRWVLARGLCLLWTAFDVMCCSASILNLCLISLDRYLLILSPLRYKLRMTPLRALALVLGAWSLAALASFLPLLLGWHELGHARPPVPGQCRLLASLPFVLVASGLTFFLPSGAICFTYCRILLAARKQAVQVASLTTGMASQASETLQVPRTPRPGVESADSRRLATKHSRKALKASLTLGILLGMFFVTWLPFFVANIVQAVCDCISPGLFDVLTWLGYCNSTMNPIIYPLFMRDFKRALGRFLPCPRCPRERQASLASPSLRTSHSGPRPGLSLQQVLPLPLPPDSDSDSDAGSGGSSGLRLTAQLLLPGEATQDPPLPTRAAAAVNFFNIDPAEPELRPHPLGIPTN

D(2) dopamine receptor = D(2) dopamine receptor (Homo sapiens, UniProt P14416); experiment: Displacement of [3H]-raclopride from human D2R expressed in human HEK293 cells; assay type: cell-based
D(2) dopamine receptor, sequence (P14416 whole entry): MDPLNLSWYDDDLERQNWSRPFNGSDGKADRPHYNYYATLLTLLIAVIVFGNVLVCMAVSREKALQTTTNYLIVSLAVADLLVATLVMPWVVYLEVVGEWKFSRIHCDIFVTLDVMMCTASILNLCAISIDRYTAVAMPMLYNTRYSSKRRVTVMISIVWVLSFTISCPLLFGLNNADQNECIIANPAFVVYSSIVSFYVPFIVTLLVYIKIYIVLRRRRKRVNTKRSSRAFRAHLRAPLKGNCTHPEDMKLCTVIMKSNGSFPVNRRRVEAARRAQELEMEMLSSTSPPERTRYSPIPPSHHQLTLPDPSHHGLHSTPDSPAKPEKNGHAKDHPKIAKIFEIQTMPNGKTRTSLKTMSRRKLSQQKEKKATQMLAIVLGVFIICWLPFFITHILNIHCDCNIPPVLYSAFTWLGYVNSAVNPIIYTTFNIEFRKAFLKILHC

[5] = target: T3, 5-hydroxytryptamine receptor 2C (Homo sapiens, UniProt P28335); experiment: Binding affinity to human 5-HT2C
T3 sequence (P28335 whole entry): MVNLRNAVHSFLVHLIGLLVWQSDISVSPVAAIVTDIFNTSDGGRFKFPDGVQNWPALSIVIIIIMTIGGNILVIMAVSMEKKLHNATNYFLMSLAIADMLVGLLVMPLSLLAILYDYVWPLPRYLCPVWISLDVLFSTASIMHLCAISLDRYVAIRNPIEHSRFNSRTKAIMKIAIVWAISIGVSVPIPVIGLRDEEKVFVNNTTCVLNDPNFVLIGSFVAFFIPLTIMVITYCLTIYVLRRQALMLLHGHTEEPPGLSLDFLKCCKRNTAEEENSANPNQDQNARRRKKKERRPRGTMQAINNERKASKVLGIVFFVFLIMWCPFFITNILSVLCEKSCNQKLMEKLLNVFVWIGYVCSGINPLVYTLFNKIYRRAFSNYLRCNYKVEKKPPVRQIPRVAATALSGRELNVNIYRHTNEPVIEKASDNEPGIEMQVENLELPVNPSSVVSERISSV

[6] = target: T4, Adrenergic receptor alpha-1 (Homo sapiens, UniProt P35348+P25100+P35368); experiment: Binding affinity to human adrenergic receptor alpha1; assay type: protein assay
T4 sequence (P35348 whole entry): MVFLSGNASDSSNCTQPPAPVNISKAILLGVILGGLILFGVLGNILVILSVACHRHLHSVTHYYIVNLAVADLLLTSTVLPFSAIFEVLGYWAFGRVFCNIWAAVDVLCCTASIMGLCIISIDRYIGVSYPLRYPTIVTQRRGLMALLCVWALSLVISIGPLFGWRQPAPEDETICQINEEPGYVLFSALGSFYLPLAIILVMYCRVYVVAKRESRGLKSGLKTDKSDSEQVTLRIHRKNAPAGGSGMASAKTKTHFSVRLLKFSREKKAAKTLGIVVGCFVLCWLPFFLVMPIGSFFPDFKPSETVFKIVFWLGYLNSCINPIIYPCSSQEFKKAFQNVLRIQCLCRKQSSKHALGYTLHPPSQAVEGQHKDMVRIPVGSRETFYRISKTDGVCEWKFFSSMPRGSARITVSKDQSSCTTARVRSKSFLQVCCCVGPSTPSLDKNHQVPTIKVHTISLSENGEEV
T4 sequence (P25100 whole entry): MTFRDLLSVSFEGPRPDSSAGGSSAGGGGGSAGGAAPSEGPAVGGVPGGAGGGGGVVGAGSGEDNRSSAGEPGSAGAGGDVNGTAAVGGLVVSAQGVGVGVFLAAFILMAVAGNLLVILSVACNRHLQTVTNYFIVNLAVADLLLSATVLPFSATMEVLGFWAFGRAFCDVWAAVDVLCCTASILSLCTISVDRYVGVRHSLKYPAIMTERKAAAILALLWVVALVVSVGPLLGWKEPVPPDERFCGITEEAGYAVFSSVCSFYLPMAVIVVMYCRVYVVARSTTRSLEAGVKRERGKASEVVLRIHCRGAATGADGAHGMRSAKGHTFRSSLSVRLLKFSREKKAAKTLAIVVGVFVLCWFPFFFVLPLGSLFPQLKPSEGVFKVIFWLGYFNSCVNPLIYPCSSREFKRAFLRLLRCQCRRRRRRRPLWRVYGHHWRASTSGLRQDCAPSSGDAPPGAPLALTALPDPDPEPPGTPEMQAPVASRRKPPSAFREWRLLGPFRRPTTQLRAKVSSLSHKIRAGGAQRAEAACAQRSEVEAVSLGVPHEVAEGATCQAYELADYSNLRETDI
T4 sequence (P35368 whole entry): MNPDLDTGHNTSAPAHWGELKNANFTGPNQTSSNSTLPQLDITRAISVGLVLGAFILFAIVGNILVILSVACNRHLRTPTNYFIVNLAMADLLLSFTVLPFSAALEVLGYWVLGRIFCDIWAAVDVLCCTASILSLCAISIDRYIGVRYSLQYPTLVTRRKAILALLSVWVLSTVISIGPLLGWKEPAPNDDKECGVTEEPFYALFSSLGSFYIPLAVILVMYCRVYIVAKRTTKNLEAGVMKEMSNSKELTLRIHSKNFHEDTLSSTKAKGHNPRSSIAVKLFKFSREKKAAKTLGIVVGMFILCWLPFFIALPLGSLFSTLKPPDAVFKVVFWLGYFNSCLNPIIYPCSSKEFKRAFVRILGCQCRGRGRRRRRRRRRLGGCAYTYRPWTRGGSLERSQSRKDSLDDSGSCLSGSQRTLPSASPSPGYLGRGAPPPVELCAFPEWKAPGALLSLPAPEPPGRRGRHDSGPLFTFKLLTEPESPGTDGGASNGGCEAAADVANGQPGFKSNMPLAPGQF

| SMILES | Ki [1] [nM] | Ki [2] [nM] | Ki [3] [nM] | Ki [4] [nM] | other results |
| --- | --- | --- | --- | --- | --- |
| COc1cccc(N2CCN(CCOc3ccccc3C(N)=O)CC2)c1 | 155 | – | – | – | – |
| NC(=O)c1ccccc1OCCCN1CCN(c2ccccc2)CC1 | 143 | – | – | – | – |
| O=C1c2ccccc2S(=O)(=O)N1CCCCN1CCN(c2ccc(Cl)cc2)CC1 | – | – | – | – | Ki (D(4) dopamine receptor): 36 nM |
| COc1ccccc1N1CCN(CCCCN2C(=O)c3ccccc3S2(=O)=O)CC1 | – | – | – | – | Ki (D(4) dopamine receptor): 79 nM |
| O=C1c2ccccc2C(=O)N1CCN1CCN(c2ccccc2)CC1 | > 1000 | – | – | – | – |
| O=C1c2ccccc2C(=O)N1CCCN1CCN(c2ccccc2)CC1 | 200 | – | – | – | – |
| O=C1c2ccccc2S(=O)(=O)N1CCCCN1CCN(c2ccccc2)CC1 | – | – | – | – | Ki (D(4) dopamine receptor): 136 nM |
| O=C1c2ccccc2S(=O)(=O)N1CCCCCCN1CCN(c2ccc(Cl)cc2)CC1 | – | 299 | 487 | 72 | – |
| O=C1c2ccccc2S(=O)(=O)N1CCCCCCN1CCN(c2ncccn2)CC1 | – | – | 2510 | 5710 | – |
| O=C1c2ccccc2S(=O)(=O)N1CCCCCCN1CCN(c2cccc(Cl)c2Cl)CC1 | – | 299 | 487 | 72 | – |
| COc1cccc(N2CCN(CCCCCn3c(=O)oc4ccccc4c3=O)CC2)c1 | 20 | – | – | – | – |
| COc1cccc(N2CCN(CCCOc3ccccc3C(N)=O)CC2)c1 | 21 | – | – | – | – |
| O=C1c2ccccc2S(=O)(=O)N1CCCN1CCN(c2cccc(C(F)(F)F)c2)CC1 | 400 | 700 | – | – | Ki [5]: > 5000 nM |
| O=C1c2ccccc2C(=O)N1CCCCCCN1CCN(c2ccccc2)CC1 | 1 | – | – | – | – |
| O=C1c2ccccc2S(=O)(=O)N1CCN1CCN(c2cccc(C(F)(F)F)c2)CC1 | > 5000 | – | – | – | – |
| COc1cccc(N2CCN(CCCN3C(=O)c4ccccc4C3=O)CC2)c1 | 13 | – | – | – | – |
| COc1cccc(N2CCN(CCN3C(=O)c4ccccc4C3=O)CC2)c1 | > 1000 | – | – | – | – |
| COc1cccc(N2CCN(CCCCOc3ccccc3C(N)=O)CC2)c1 | 38 | – | – | – | – |
| O=C1c2ccccc2S(=O)(=O)N1CCCCCN1CCN(c2ccc(Cl)cc2)CC1 | 101 | 139 | 191 | 703 | Ki (D(2) dopamine receptor): 254 nM |
| O=C1c2ccccc2S(=O)(=O)N1CCCCCN1CCN(c2cccc(Cl)c2Cl)CC1 | 29 | 126 | 149 | 197 | Ki (D(2) dopamine receptor): 17 nM |
| COc1ccccc1N1CCN(CCCCCCN2C(=O)c3ccccc3C2=O)CC1 | 22 | – | – | – | – |
| O=C1c2ccccc2S(=O)(=O)N1CCCCCN1CCN(c2cccc(C(F)(F)F)c2)CC1 | 21 | 162 | 35 | 1350 | Ki (D(2) dopamine receptor): 34 nM |
| COc1ccccc1N1CCN(Cc2ccc(CN3C(=O)c4ccccc4S3(=O)=O)cc2)CC1 | 77 | 4750 | 97 | 10100 | Ki (D(2) dopamine receptor): 2 nM |
| COc1cccc(N2CCN(CCCn3c(=O)oc4ccccc4c3=O)CC2)c1 | 46 | – | – | – | – |
| O=c1oc2ccccc2c(=O)n1CCCN1CCN(c2ccccc2)CC1 | 402 | – | – | – | – |

Now from value to compound, other results behind:

| Ki [1] [nM] | Ki [2] [nM] | Ki [3] [nM] | Ki [4] [nM] | SMILES | other results |
| --- | --- | --- | --- | --- | --- |
| 8.5 | – | – | – | O=C1c2ccccc2C(=O)N1CCCCCN1CCN(c2ccccc2)CC1 | – |
| 10 | – | – | – | O=C1c2ccccc2C(=O)N1CCCCN1CCN(c2ccccc2)CC1 | – |
| 10 | 764 | 105 | 779 | COc1ccccc1N1CCN(CCCCCCN2C(=O)c3ccccc3S2(=O)=O)CC1 | Ki (D(2) dopamine receptor): 1 nM |
| 13 | 1440 | 179 | 2630 | O=C1c2ccccc2S(=O)(=O)N1CCCCCN1CCN(c2ccccn2)CC1 | Ki (D(2) dopamine receptor): 92 nM |
| 4 | – | – | – | COc1cccc(N2CCN(CCCCCOc3ccccc3C(N)=O)CC2)c1 | – |
| 7.2 | – | – | – | COc1ccccc1N1CCN(CCCCCN2C(=O)c3ccccc3C2=O)CC1 | – |
| 1 | 2580 | 372 | 2660 | O=C1c2ccccc2S(=O)(=O)N1CCCCN1CCN(c2cccc(Cl)c2Cl)CC1 | Ki (D(2) dopamine receptor): 26 nM |
| 3 | 584 | 125 | 1990 | COc1ccccc1N1CCN(CCCCCN2C(=O)c3ccccc3S2(=O)=O)CC1 | Ki (D(2) dopamine receptor): 20 nM |
| 3 | – | – | – | COc1ccccc1N1CCN(CCCCCCOc2ccccc2C(N)=O)CC1 | – |
| 16 | 105 | 36 | 101 | O=C1c2ccccc2S(=O)(=O)N1CCCCCN1CCN(c2cccc3ccccc23)CC1 | Ki (D(2) dopamine receptor): 20 nM |
| 18 | – | – | – | COc1cccc(N2CCN(CCCCCCn3c(=O)oc4ccccc4c3=O)CC2)c1 | – |
| 16 | 313 | 148 | 1840 | O=C1c2ccccc2S(=O)(=O)N1CCCCCN1CCN(c2ccccc2)CC1 | Ki (D(2) dopamine receptor): 165 nM |
| 6 | 6310 | 2670 | 7100 | O=C1c2ccccc2S(=O)(=O)N1CCCCCN1CCN(c2ncccn2)CC1 | Ki (D(2) dopamine receptor): 954 nM |
| 3.2 | – | – | – | COc1cccc(N2CCN(CCCCn3c(=O)oc4ccccc4c3=O)CC2)c1 | – |
| 2.8 | – | – | – | O=c1oc2ccccc2c(=O)n1CCCCN1CCN(c2ccccc2)CC1 | – |
| 7.9 | 15000 | 1410 | 16800 | O=C1c2ccccc2S(=O)(=O)N1CCCCN1CCN(c2ncccn2)CC1 [IPSAPIRONE] | Ki [6]: 229 nM |
| 2 | – | – | – | O=C1c2ccccc2S(=O)(=O)N1CCCN1CCN(c2ncccn2)CC1 [REVOSPIRONE] | – |

Reference: ChEMBL document CHEMBL4819072, “Radioligand and computational insight in structure - Activity relationship of saccharin derivatives being ipsapirone and revospirone analogues” (Bioorg Med Chem Lett, 2021)
